{"source": "patent US20240016924A1", "about": "“NEW ADJUVANT TO IMPROVE THE INNATE IMMUNITY” (INSTITUT NATIONAL DE LA SANTÉ ET DE LA RECHERCHE MÉDICALE, priority 2020, published 2024)", "assay_type_in_all_cases": "cell-based, human", "key": {"[1]": {"test_system": "primary HNECs", "assay": "Quantitative RT-PCR for short and long form TSLP, primary HNECs", "procedure": "The expression of short and long form TSLP was quantified as described (Bjerkan, Schreurs et al. 2015, Dong, Hu et al. 2016). Briefly, total RNA was extracted using Trizol. Five hundred nanograms of RNA were treated with ezDNase Enzyme (Thermo Fisher) to remove genomic DNA, and reverse transcribed into cDNA using the kit SuperScript IV VILO Master Mix according to manufacturer instructions (Thermo Fisher). Quantitative PCR was performed using reported primers (Dong, Hu et al. 2016) and the PowerUp SYBR Green Master Mix according to manufacturer instructions (Thermo Fisher). Reactions were performed in triplicates, with glyceraldehyde-3-phosphate dehydrogenase (GAPDH) as the internal control. Amplification, data acquisition, and analysis were carried out using the LightCycler 480 Software (Roche, Mannheim, Germany). The levels of TSLP mRNA were normalized to the levels of GAPDH using the ΔCt method (Schmittgen and Livak 2008) and were presented as 2-ΔCt values."}, "[2]": {"test_system": "RPMI 2650 cells", "assay": "TSLP secretion in nasal RPMI 2650 cell culture supernatants (ELISA)", "procedure": "Nasal RPMI 2650 cells (isolated from the human nasal septum, squamous cell carcinoma, ATCC) were grown in MEMα (Minimum Essential Medium α, Thermo Fisher) supplemented with 10% fetal calf serum (FCS, Eurobio, Courtaboeuf, France) and 1% penicillin/streptomycin.\nTSLP, IL-25/IL-17E, IL-33, IFN-γ, IL-10, IL-12/23p40, IL-4, IL-5, IL-6, IL-13, TNF-α, MMP-9, IL-8/CXCL8, […], MDC/CCL22, TARC/CCL17, APRIL and BAFF were measured in culture supernatants from indicated experiments with custom multiplex Luminex assays (Bio-techne) according to the manufacturer's instructions. Additionally, when indicated TSLP was measured in culture supernatants by enzyme-linked immunosorbent assay (ELISA) with a limit of detection of 8 pg/ml (Thermo Fisher) according to the manufacturer's instructions.\nWe first investigate whether P1 induced TSLP secretion in nasal epithelium. Therefore, we cultured human nasal epithelial cells (RPMI 2650) with P1 Glade B for 2-24 hours at 37° C. and analyzed the culture supernatants for TSLP secretion."}, "[3]": {"test_system": "Monocyte-derived DCs", "assay": "DC-EC co-culture and DC activation", "procedure": "Monocyte-derived DCs (DCs) were generated from primary human monocytes obtained from PBMCs (purity>98%) as described (Sallusto and Lanzavecchia 1994, Magérus-Chatinet, Yu et al. 2007). In brief, human peripheral blood mononuclear cells (PBMC) were separated from healthy donors blood (EFS, Paris, France), and monocytes were purified from PBMC by negative selection according to manufacturer instructions (StemCell Technologies, France). DCs were obtained by incubating monocytes for 7 days in complete medium containing GM-CSF (100 ng/ml) and IL-4 ([…]).\nThree DC culture systems were developed. Monocytes derived DCs (5×10^5 cells) were incubate for 24 h in medium alone and considered as non-mucosal DCs (DCs) or co-cultured with nasal epithelial cell (RPMI-2650 cell line) monolayer in 24-well plate (DC-EC or eduDC systems for 24 hours at 37° C. In turn, DCs were either further cultured with ECs during P1 stimulation (DC-ECs) or separated from EC and transferred into a new plate (eduDCs) for further P1 treatment. Subsequently, P1 (clade B, 125 μM) or medium were added to each of the DCs, DC-ECs or eduDCs cultures for 16 hrs. DCs were collected for surface staining with allophycocyanin (APC)-conjugated anti-CD86, R-phycoerythrin (PE)-conjugated anti-CD83, APC-conjugated anti-TSLPR, PE-conjugated anti-IL-7Rα antibodies (all from Bio-Techne). Specific labeling was quantified by flow cytometry using a Guava EasyCyte flow cytometer and the InCyte software (Merck) described (Duchemin, Khamassi et al. 2018). Culture supernatant were collected and frozen at −80° C. for subsequent cytokine and chemokine analyses.\nIn particular, mucosal DCs modulate their functions by interacting with epithelial cells (ECs) including via epithelial secretion of TSLP (Rimoldi, Chieppa et al. 2005, Biton, Levin et al. 2011). Thus, we established a simplified mucosal DC model, by co-culturing DCs and nasal ECs (RPMI-2650 cell line), thereby mimicking the nasal mucosal environment. DCs were first ‘educated’ by a 24 hr co-culture with ECs. Subsequently, these ‘educated’ DCs were either maintained in culture with ECs and referred to as DC-EC, or separated from the epithelium and referred to as eduDC. Alternatively, DCs only cultured with medium represented ‘non-mucosal’ DCs."}, "[4]": {"test_system": "primary HNECs", "assay": "MicroRNA microarray analysis and miR qPCR after P1 stimulation", "procedure": "Confluent HNECs in 12-well plate were stimulated with medium or P1 (clade B, 125 μM) for 6 hours, at 37° C. Total RNA was extracted using Trizol. Before analysis, lfTSLP RNA up-regulation was confirmed by qPCR as described above and RNA quality was assessed with Agilent 2100 bioanalyzer according to manufacturer instructions (Agilent Technologies). Three untreated and treated paired samples from three independent experiments were analyzed by GeneChip miRNA 4.0 arrays (Affymetrix, Thermo Fisher) containing probes for 2578 human mature microRNAs and 2025 pre-mature microRNAs (https://assets.thermofisher.com/TFS-Assets/LSG/brochures/miRNA_4-0_and_4-1_datasheet.pdf). Potential microRNA targets were analyzed with the Ingenuity Pathway Analysis (IPA) software (Qiagen).\nThe quantification and knockdown of microRNA were performed as previously described with some modifications (Zhou, Xu et al. 2018). Briefly, total RNA was purified using MinElute PCR Purification Kit (Qiagen), the expression level of miR-4485 was quantified with TaqMan Small RNA Assays (Thermo Fisher). Reactions were performed in triplicates, and U6 was used as endogenous control. In order to knockdown miR-4485, 70% confluent HNEC cells were transfected with anti-miR-4485 inhibitor (67 nM, Qiagen) or mock inhibitor (miSCRIPT inhibitor negative control, 67 nM, Qiagen) using Lipofectamine RNAiMAX (Invitrogen) as described by the manufacturer. 36 h after transfection, miR-4485 expression, when quantified as described above, was reduced by 50-60% in anti-miR-4485 transfected cells as compared to anti-miR control (n=3 independent experiments)."}}, "data": [{"sequence": "SQNQQEKNEQELLELDKWASLWNWFNITNWLWYIK [P1]", "values": [{"measurement": "increase of lfTSLP transcription compared to unstimulated cells", "setting": "[1]; HNECs, p=0.004, n=6", "value": 5.9, "unit": "fold"}, {"measurement": "level of the sfTSLP transcript", "setting": "[1]; upon P1 stimulation, primary HNECs", "value": "remains unchanged"}, {"measurement": "TSLP secretion time course", "setting": "[2]; 2-24 hours at 37° C.", "value": "reaching a plateau from 4 to 24 h"}, {"measurement": "TSLP secretion", "setting": "[2]; P1 5, 25, 125 μM, 2 h to 4 h, compared with medium and scramble peptides", "value": "upregulates TSLP secretion in a dose-dependent manner"}, {"measurement": "TSLP secretion, trimeric versus monomeric state", "setting": "[2]; P1 at 125 μM versus 5 μM and 25 μM", "value": "significantly higher secretion of TSLP"}, {"measurement": "Secretion of TSLP", "setting": "[2]; peptide at 125 uM, 4 hours, n=5", "value": "52.3 ± 3.4", "unit": "pg/mL"}, {"measurement": "expression of maturation markers CD83 and CD86", "setting": "[3]; 'non-mucosal' DCs, P1 125 μM overnight", "value": "has no effect"}, {"measurement": "IFN-γ secretion", "setting": "[3]; DC models upon P1 stimulation", "value": "remains unchanged upon P1-stimulation or slightly decreases in DC-EC"}, {"measurement": "expression of TSLP receptor (TSLP-R and IL-7Rα)", "setting": "[3]; DCs in all three models", "value": "significantly enhanced the expression of TSLP receptor"}, {"measurement": "IL-12, IL-13, CCL2, CCL17, TNF-α, APRIL and BAFF secretion", "setting": "[3]; DCs, DC-EC, eduDC", "value": "secreted equally in all three models"}, {"measurement": "TSLP secretion", "setting": "[3]; eduDC and DC-EC models", "value": "more modest"}, {"measurement": "IL-6, IL-8, IL-10, CCL20, CCL22 and MMP-9 secretion", "setting": "[3]; eduDC and DC-EC models compared with non-mucosal DCs", "value": "significant increase"}, {"measurement": "expression of co-stimulatory molecules CD83 and CD86", "setting": "[3]; mucosal DCs (DC-EC or eduDCs), P1 125 μM overnight, versus untreated", "value": "significant up-regulation"}, {"measurement": "IL-25, IL-33, IL-4, IL-5 secretion", "setting": "[3]; whatever the model", "value": "remain undetectable"}, {"measurement": "miR-4485-3p increase, microRNA array", "setting": "[4]; P1 125 μM, 6 hours", "value": "> 9", "unit": "fold"}, {"measurement": "number of differentially expressed microRNAs", "setting": "[4]; P1 125 μM, 6 hours, microRNA array, p<0.05, 23 up-regulated, 16 down-regulated", "value": 39}, {"measurement": "miR-375 expression", "setting": "[4]; primary HNECs, P1 stimulation", "value": "not accompanied by a change in miR-375 expression"}, {"measurement": "increase in miR-4485-3p expression, qPCR", "setting": "[4]; upon P1 stimulation, n=4", "value": "2.6±0.8", "unit": "fold"}]}]}
